Measurements taken from PubChem BioAssay (NCI).
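How tested: cells in 96-well plates exposed to compound for 48 hours at five concentrations. GI50: concentration for 50% inhibition of growth. The concentration for full growth arrest is given as TGI.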

What was measured:
Experiment in all cases: NCI anticancer screen, dose series, 48 h
A549 NSCLC = system: A549 NSCLC
DMS 114 small cell lung = system: DMS 114 small cell lung
HOP-62 NSCLC = system: HOP-62 NSCLC
M19-MEL melanoma = system: M19-MEL melanoma
OVCAR-4 ovarian = system: OVCAR-4 ovarian
SK-MEL-2 melanoma = system: SK-MEL-2 melanoma
SN12C renal = system: SN12C renal
DMS 273 small cell lung = system: DMS 273 small cell lung
MCF7 breast = system: MCF7 breast
MDA-MB-435 = system: MDA-MB-435
NCI/ADR-RES ovarian = system: NCI/ADR-RES ovarian

| Structure (SMILES) | TGI (A549 NSCLC) [µM] | TGI (DMS 114 small cell lung) [µM] | TGI (HOP-62 NSCLC) [µM] | TGI (M19-MEL melanoma) [µM] | TGI (OVCAR-4 ovarian) [µM] | TGI (SK-MEL-2 melanoma) [µM] | TGI (SN12C renal) [µM] | TGI (DMS 273 small cell lung) [µM] | GI50 (A549 NSCLC) [µM] | GI50 (HOP-62 NSCLC) [µM] | GI50 (MCF7 breast) [µM] | GI50 (MDA-MB-435) [µM] | TGI (MDA-MB-435) [µM] | GI50 (NCI/ADR-RES ovarian) [µM] | TGI (NCI/ADR-RES ovarian) [µM] | GI50 (OVCAR-4 ovarian) [µM] | GI50 (SK-MEL-2 melanoma) [µM] | GI50 (SN12C renal) [µM] | TGI (MCF7 breast) [µM] |
| --- | --- | --- | --- | --- | --- | --- | --- | --- | --- | --- | --- | --- | --- | --- | --- | --- | --- | --- | --- |
| COC(CN1C=C(Sc2ccccc2)CC1)OC | > 100 | 65.4 | > 100 | 97.7 | > 100 | 44.8 | > 100 | – | – | – | – | – | – | – | – | – | – | – | – |
| C/C=C(\C)c1cc(O)c(C)c2c1Oc1cc(O)c(Cl)c(C)c1C(=O)O2 | 74 | 74.9 | 51.1 | 81.8 | 34.5 | 41.8 | 30.9 | 67.9 | – | – | – | – | – | – | – | – | – | – | – |
| c1ccc(P(=Nc2ccccc2N=P(c2ccccc2)(c2ccccc2)c2ccccc2)(c2ccccc2)c2ccccc2)cc1 | 12.6 | 2.68 | 2.73 | 12.1 | 14.9 | – | 10.9 | 10 | – | – | – | – | – | – | – | – | – | – | – |
| COc1ccc(C(Cl)=C(c2ccc(OCCN(C)C)cc2)c2ccc(OCCN(C)C)cc2)cc1 | 3.67 | 3.06 | 10.4 | – | 5.99 | 3.12 | 11.7 | 4.17 | – | – | – | – | – | – | – | – | – | – | – |
| CN(C)c1ccc(/C=C2\C=Cc3ccccc32)cc1 | > 100 | 89.6 | > 100 | > 100 | > 100 | > 100 | > 100 | > 100 | – | – | – | – | – | – | – | – | – | – | – |
| Cc1ccc(S(=O)OC2C3CC4CC(C3)CC2C4)cc1 (stereo not given) | > 100 | > 100 | > 100 | > 100 | > 100 | – | > 100 | > 100 | – | – | – | – | – | – | – | – | – | – | – |
| Cc1cc2c(c(C(=O)O)c1C)-c1cccc(F)c1C2=O | > 100 | > 100 | > 100 | > 100 | > 100 | > 100 | > 100 | > 100 | – | – | – | – | – | – | – | – | – | – | – |
| Cn1c2ccccc2n2c(=O)c3c(c(C#N)c12)CCCC3 | > 100 | > 100 | > 100 | > 100 | > 100 | > 100 | > 100 | > 100 | – | – | – | – | – | – | – | – | – | – | – |
| CCCCCCCCCCCCCP(=O)(O)NCC(N)=O | > 100 | > 100 | > 100 | > 100 | > 100 | > 100 | > 100 | – | – | – | – | – | – | – | – | – | – | – | – |
| Fc1cccc(C2SCc3nc4ccccc4n32)c1F (stereo not given) | > 100 | > 100 | > 100 | > 100 | > 100 | 76.4 | > 100 | 50.5 | – | – | – | – | – | – | – | – | – | – | – |
| O=P1(Oc2ccccc2)C(c2ccccc2)C(c2ccccc2)=NN1c1ccccc1 (stereo not given) | 93.8 | 43.8 | 71.3 | 54.9 | 86.3 | 31.6 | 94.3 | 89.3 | – | – | – | – | – | – | – | – | – | – | – |
| CC(C)c1c2[nH]c3ccccc3c2c(C(C)C)c2[nH]c3ccccc3c12 | > 100 | > 100 | > 100 | > 100 | > 100 | > 100 | > 100 | > 100 | – | – | – | – | – | – | – | – | – | – | – |
| CCO/C=C1\N=C(c2ccccc2Br)OC1=O | > 100 | > 100 | > 100 | > 100 | > 100 | > 100 | > 100 | > 100 | – | – | – | – | – | – | – | – | – | – | – |
| CN(C)CCC(/C=C/c1ccccc1)=N\Nc1ccc(Cl)cc1Cl | 30.5 | 29.5 | 27.9 | 29 | 29.7 | 26.7 | 23.2 | 25.9 | – | – | – | – | – | – | – | – | – | – | – |
| Cc1cc(N(CCC#N)CCC#N)ccc1/C=C1/N=C(c2ccccc2)N(N)C1=O | > 100 | > 100 | > 100 | > 100 | > 100 | > 100 | > 100 | > 100 | – | – | – | – | – | – | – | – | – | – | – |
| CC1(C)C2CCC13CS(=O)(=O)N1O[C@]13C(=O)O2 (stereo not given in full) | > 100 | > 100 | > 100 | > 100 | > 100 | > 100 | > 100 | – | – | – | – | – | – | – | – | – | – | – | – |
| COc1cc2nc(NCCCCCNC(=O)c3ccco3)nc(N)c2cc1OC | > 100 | 40.6 | 61.3 | 61.4 | > 100 | 36.5 | > 100 | > 100 | – | – | – | – | – | – | – | – | – | – | – |
| CN(CCCCCl)P(=O)(OCCS(=O)(=O)CC(NC(=O)CCC(N)C(=O)O)C(=O)NC(C(=O)O)c1ccccc1)OCC1OC(n2cc(F)c(=O)[nH]c2=O)CC1O (stereo not given) | > 100 | – | 6.99 | – | > 100 | > 100 | 16.9 | – | < 0.0506 | < 0.01 | < 0.01 | 2.27 | > 100 | 0.323 | > 65.1 | 8.27 | > 49.7 | 0.41 | – |
| Cn1cncc1CC1COC(=O)C1C(O)c1ccccc1 (stereo not given) | > 100 | – | > 100 | – | > 100 | > 100 | > 100 | – | – | – | – | – | > 100 | – | > 100 | – | – | – | > 100 |
| CC1CN1c1c(C(=O)/C=C/c2ccccc2)c(-c2ccccc2)nn(C)c1=O (stereo not given) | 70.5 | 43.8 | 46.3 | 35.1 | 31.9 | 29.9 | 32.6 | 30.3 | – | – | – | – | – | – | – | – | – | – | – |
| COc1ccc(OC)c(Cn2cc3c(c2)-c2oncc2CC3)c1 | > 100 | – | > 100 | – | > 100 | 7.62 | > 100 | – | 4.42 | 4.08 | 3.02 | 0.316 | 1.42 | 2.01 | 6.68 | 5.74 | 2.03 | 5.97 | > 81.9 |
| COc1ccc(-c2cc(=O)c3c(OC)c(OC)c(OC)c(OC)c3o2)cc1 | > 100 | – | > 100 | – | > 100 | > 100 | > 100 | – | – | – | – | – | > 100 | – | > 100 | – | – | – | > 100 |
| Nc1ccc(-c2nc3ccccc3[nH]2)c2ccccc12 | 50.3 | – | > 100 | – | > 72.5 | > 100 | 59.7 | – | 6.6 | 6.16 | 2.38 | 0.198 | 0.812 | 2.08 | 7.37 | 8.26 | 14.2 | 10.1 | > 100 |
| CN1COc2c(n(C)c(=O)[nH]c2=O)C1 | > 100 | > 100 | > 100 | > 100 | > 100 | > 100 | > 100 | > 100 | – | – | – | – | – | – | – | – | – | – | – |
| CCN(CCO)CC(C)Nc1ccc([N+](=O)[O-])c2sc3ccccc3c(=O)c12 (stereo not given) | 1.97 | – | 5.55 | – | 15.7 | 3.64 | 18.4 | – | 0.535 | 1.27 | 0.436 | 1.54 | 3.8 | 1.6 | 5.86 | 3.32 | 1.23 | 2.15 | 4.15 |
